Data published in patent publication US20060052413A1, “Novel piperidine derivatives as modulators of chemokine receptor ccr5” (priority 2002, published 2006).
pIC50: −log10 of the molar value.

Biological target: recombinant human CCR5 receptor (Homo sapiens, UniProt P51681)
Assay: MIP-1α radioligand binding assay (scintillation proximity), CHO cell membranes
Conditions: displacement of 0.1 nM iodinated MIP-1α; negative log10 of IC50; average if tested more than once
Protocol: The ability of compounds to inhibit the binding of MIP-1α was assessed by an in vitro radioligand binding assay. Membranes were prepared from Chinese hamster ovary cells which expressed the recombinant human CCR5 receptor. These membranes were incubated with 0.1 nM iodinated MIP-1α, scintillation proximity beads and various concentrations of the compounds of the invention in 96-well plates. The amount of iodinated MIP-1α bound to the receptor was determined by scintillation counting. Competition curves were obtained for compounds and the concentration of compound which displaced 50% of bound iodinated MIP-1α was calculated (IC50).
In Table II the results are presented as Pic50 values. A Pic50 value is the negative log (to base 10) of the IC50 result, so an IC50 of 1 μM (that is 1×10^−6M) gives a Pic50 of 6. If a compound was tested more than once then the data below is an average of the probative tests results.

Chain of recombinant human CCR5 receptor (P51681 whole entry): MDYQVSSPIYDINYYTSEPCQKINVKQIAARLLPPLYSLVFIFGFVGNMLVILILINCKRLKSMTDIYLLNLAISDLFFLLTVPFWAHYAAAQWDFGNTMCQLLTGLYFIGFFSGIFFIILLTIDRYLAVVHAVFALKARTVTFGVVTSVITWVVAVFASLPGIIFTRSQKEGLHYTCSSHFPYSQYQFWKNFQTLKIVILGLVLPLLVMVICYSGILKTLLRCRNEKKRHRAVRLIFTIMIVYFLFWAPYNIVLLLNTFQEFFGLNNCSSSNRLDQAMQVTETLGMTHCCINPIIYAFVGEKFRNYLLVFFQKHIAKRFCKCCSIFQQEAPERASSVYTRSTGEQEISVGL

## CCS(=O)(=O)N1CCN(C(CCN2CCC(CCCc3ccccc3)CC2)c2ccccc2)CC1 (stereo not shown) [Compound 3]
  pIC50: 7.01
